These are literature values, as cited in patent publication US20120059599A1, “HYBRID FRAGMENT-LIGAND MODELING FOR C[…] COMPOUNDS” (UNIVERSITY OF LOUISVILLE, priority 2010, published 2012).

One data set has as its system Salmonella. Particulars: reported in the CPDB.
The test system of another data set is mammary. Conditions: reported in the CPDB.
Another data set deals with humans. Conditions: IARC.
A further data set has as its system experimental animals. Particulars: IARC.
In another data set the test system is estrogen receptor. Particulars: has been demonstrated.
The conditions of data set [1]: has been demonstrated.

For `CCNc1nc(Cl)nc(NC(C)C)n1` [Atrazine], the Salmonella mutagenicity entry in the data set with Salmonella was “non-mutagen”.
As to `Cn1c(N)nc2ncc(-c3ccccc3)cc21` [PhIP, 2-amino-1-methyl-6-phenylimidazo[4,5-b]pyridine], in the data set with Salmonella, the Salmonella mutagenicity entry is given as “mutagen”. Besides, the mammary carcinogenicity result in the data set with mammary is given as “mammary carcinogen”. The “evidence to determine carcinogenicity in humans” value in the data set with humans was “inadequate evidence”. For the same compound, the “evidence for carcinogenicity in experimental animals” value in the data set with experimental animals was “antiquated evidence”. In addition, the estrogen receptor ligand entry in the data set on estrogen receptor is on record as “estrogen receptor ligand”. Besides, the genotoxic carcinogen entry in data set [1] is listed as “genotoxic carcinogen”.
